Measured values taken from US20250230193A1, “CYCLIC COMPOUND HAVING SELECTIVE KRAS INHIBITORY EFFECT ON HRAS AND NRAS” (CHUGAI SEIYAKU KABUSHIKI KAISHA, priority 2022, published 2025).

Legend:
[1] = biological target: GDP-bound HRAS wild-type protein (Homo sapiens, UniProt P01112); assay: Binding to HRAS by surface plasmon resonance (SPR), Single Cycle Kinetics; details: KD ratio HRAS/KRAS, class symbols
[2] = biological target: GDP-bound NRAS wild-type protein (Homo sapiens, UniProt P01111); assay: Binding to NRAS by surface plasmon resonance (SPR), Single Cycle Kinetics; details: KD ratio NRAS/KRAS, class symbols
GDP-bound NRAS wild-type protein, sequence (P01111 whole entry): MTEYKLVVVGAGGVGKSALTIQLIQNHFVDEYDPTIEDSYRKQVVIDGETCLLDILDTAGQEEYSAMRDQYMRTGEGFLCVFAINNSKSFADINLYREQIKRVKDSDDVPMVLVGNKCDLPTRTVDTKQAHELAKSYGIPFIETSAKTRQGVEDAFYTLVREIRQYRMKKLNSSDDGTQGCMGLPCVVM

GDP-bound HRAS wild-type protein, sequence (P01112 whole entry): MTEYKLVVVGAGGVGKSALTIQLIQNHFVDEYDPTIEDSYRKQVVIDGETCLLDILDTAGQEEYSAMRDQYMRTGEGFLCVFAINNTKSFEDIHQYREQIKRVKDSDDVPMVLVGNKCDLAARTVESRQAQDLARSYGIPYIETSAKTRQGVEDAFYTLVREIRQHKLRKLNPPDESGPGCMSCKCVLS

| SMILES | HRAS/KRAS (ratio of KD value with respect to GDP-bound HRAS wild-type protein to KD value with respect to KRAS) [1] | NRAS/KRAS (ratio of KD value with respect to GDP-bound NRAS wild-type protein to KD value with respect to KRAS) [2] |
| --- | --- | --- |
| CCO[C@@H]1C[C@H]2C(=O)NC3(CC(C)(C)C3)C(=O)N(C)[C@@H](C(CC)CC)C(=O)N(C)[C@H](C(=O)N(C)C)CC(=O)N(C)[C@@H](COC)C(=O)N[C@@H]([C@@H](C)CC)C(=O)N(C3CC3)CC(=O)N(C)[C@H]3C/C=C\CCN(C3=O)[C@@H](CC3CCCCC3)C(=O)N(C)CC(=O)N[C@@H](CCc3cc(F)c(C(F)(F)F)c(F)c3)C(=O)N2C1 [PP2564] | A (a compound having 10 or more and less than 20 is denoted as A) | A (a compound having 10 or more and less than 20 is denoted as A) |
| CCC[C@H]1C(=O)N[C@@H]([C@@H](C)CC)C(=O)N(C2CC2)CC(=O)N(C)[C@H]2C/C=C\CCN(C2=O)[C@@H](CC2CCC(F)(F)CC2)C(=O)N(C)CC(=O)N[C@@H](CCc2cc(F)c(C(F)(F)F)c(F)c2)C(=O)N2C[C@H](OCC)C[C@H]2C(=O)NC2(CC(C)(C)C2)C(=O)N(C)[C@@H](C2CCCC2)C(=O)N(C)[C@H](C(=O)N(C)C)CC(=O)N1C [PP2566] | B (a compound having 3 or more and less than 10 is denoted as B) | A (a compound having 10 or more and less than 20 is denoted as A) |
| CCC[C@H]1C(=O)N[C@@H]([C@@H](C)CC)C(=O)N(C2CC2)CC(=O)N(C)[C@H]2C/C=C\CCN(C2=O)[C@@H](CC2CCC(F)(F)CC2)C(=O)N(C)CC(=O)N[C@@H](CCc2ccc(Cl)c(Cl)c2)C(=O)N2C[C@H](OCC)C[C@H]2C(=O)NC2(CC(C)(C)C2)C(=O)N(C)[C@@H](C2CCCC2)C(=O)N(C)[C@H](C(=O)N(C)C)CC(=O)N1C [PP2567] | A (a compound having 10 or more and less than 20 is denoted as A) | A (a compound having 10 or more and less than 20 is denoted as A) |
| CCO[C@@H]1C[C@H]2C(=O)NC3(CC(C)(C)C3)C(=O)N(C)[C@@H](C(CC)CC)C(=O)N(C)[C@H](C(=O)N(C)C)CC(=O)N(C)[C@@H](COC)C(=O)N[C@@H]([C@@H](C)CC)C(=O)N(C3CC3)CC(=O)N(C)[C@H]3C/C=C\CCN(C3=O)[C@@H](CC3CCC(F)(F)CC3)C(=O)N(C)CC(=O)N[C@@H](CCc3cc(F)c(C(F)(F)F)c(F)c3)C(=O)N2C1 [PP2568] | B (a compound having 3 or more and less than 10 is denoted as B) | A (a compound having 10 or more and less than 20 is denoted as A) |
| CCO[C@@H]1C[C@H]2C(=O)NC3(CC(C)(C)C3)C(=O)N(C)[C@@H](C(CC)CC)C(=O)N(C)[C@H](C(=O)N(C)C)CC(=O)N(C)[C@@H](COC)C(=O)N[C@@H]([C@@H](C)CC)C(=O)N(C3CC3)CC(=O)N(C)[C@H]3C/C=C\CCN(C3=O)[C@@H](CC3CCC(F)(F)CC3)C(=O)N(C)CC(=O)N[C@@H](CCc3ccc(Cl)c(Cl)c3)C(=O)N2C1 [PP2569] | A (a compound having 10 or more and less than 20 is denoted as A) | AA (a compound having 20 or more is denoted as AA) |
| CCC[C@H]1C(=O)N[C@@H]([C@@H](C)CC)C(=O)N(C2CC2)CC(=O)N(C)[C@H]2C/C=C\CCN(C2=O)[C@@H](Cc2ccc(C)cc2)C(=O)N(C)CC(=O)N[C@@H](CCc2cc(F)c(C(F)(F)F)c(F)c2)C(=O)N2C[C@H](OC(C)C)C[C@H]2C(=O)NC2(CC(C)(C)C2)C(=O)N(C)[C@@H](C2CCCC2)C(=O)N(C)[C@H](C(=O)N(C)C)CC(=O)N1C [PP2570] | A (a compound having 10 or more and less than 20 is denoted as A) | A (a compound having 10 or more and less than 20 is denoted as A) |
| CCC[C@H]1C(=O)N[C@@H]([C@@H](C)CC)C(=O)N(C2CC2)CC(=O)N(C)[C@H]2C/C=C\CCN(C2=O)[C@@H](Cc2ccc(C)cc2)C(=O)N(C)CC(=O)N[C@@H](CCc2ccc(Cl)c(Cl)c2)C(=O)N2C[C@H](OC(C)C)C[C@H]2C(=O)NC2(CC(C)(C)C2)C(=O)N(C)[C@@H](C2CCCC2)C(=O)N(C)[C@H](C(=O)N(C)C)CC(=O)N1C [PP2571] | A (a compound having 10 or more and less than 20 is denoted as A) | A (a compound having 10 or more and less than 20 is denoted as A) |
| CCC(CC)[C@H]1C(=O)N(C)[C@H](C(=O)N(C)C)CC(=O)N(C)[C@@H](COC)C(=O)N[C@@H]([C@@H](C)CC)C(=O)N(C2CC2)CC(=O)N(C)[C@H]2C/C=C\CCN(C2=O)[C@@H](Cc2ccc(C)cc2)C(=O)N(C)CC(=O)N[C@@H](CCc2cc(F)c(C(F)(F)F)c(F)c2)C(=O)N2C[C@H](OC(C)C)C[C@H]2C(=O)NC2(CC(C)(C)C2)C(=O)N1C [PP2572] | A (a compound having 10 or more and less than 20 is denoted as A) | A (a compound having 10 or more and less than 20 is denoted as A) |
| CCO[C@@H]1C[C@H]2C(=O)NC3(CC(C)(C)C3)C(=O)N(C)[C@@H](C3CCCC3)C(=O)N(C)[C@H](C(=O)N3CCCCC3)CC(=O)N(C)[C@H]3CCC/C=C/c4ccc(cc4)C[C@@H](C(=O)N(C)CC(=O)N[C@@H](CCc4cc(F)c(C(F)(F)F)c(F)c4)C(=O)N2C1)N1CC/C=C\C[C@@H](C1=O)N(C)C(=O)CN(C)C(=O)[C@H]([C@@H](C)CC)NC3=O [PP2573] | A (a compound having 10 or more and less than 20 is denoted as A) | A (a compound having 10 or more and less than 20 is denoted as A) |
| CCO[C@@H]1C[C@H]2C(=O)NC3(CC(C)(C)C3)C(=O)N(C)[C@@H](C3CCCC3)C(=O)N(C)[C@H](C(=O)N3CCCC3)CC(=O)N(C)[C@H]3CCC/C=C/c4ccc(cc4)C[C@@H](C(=O)N(C)CC(=O)N[C@@H](CCc4cc(F)c(C(F)(F)F)c(F)c4)C(=O)N2C1)N1CC/C=C\C[C@@H](C1=O)N(C)C(=O)CN(C)C(=O)[C@H]([C@@H](C)CC)NC3=O [PP2574, (1S,7S,11R,13S,19S,22S,26S,29S,35S,37Z,47E)-19-cyclopentyl-7-[2-[3,5-difluoro-4-(trifluoromethyl)phenyl]ethyl]-11-ethoxy-3,3′,3′,18,21,25,31,34-octamethyl-29-[(1S)-1-methylpropyl]-22-(pyrrolidine-1-carbonyl)spiro[3,6,9,15,18,21,25,28,31,34,41-undecazapentacyclo[24.15.10.2^43,46.1^35,41.0^9,13]tetrapentaconta-37,43(53),44,46(52),47-pentaene-16,1′-cyclobutane]-2,5,8,14,17,20,24,27,30,33,54-undecone] | A (a compound having 10 or more and less than 20 is denoted as A) | A (a compound having 10 or more and less than 20 is denoted as A) |
| CCO[C@@H]1C[C@H]2C(=O)NC3(CC(C)(C)C3)C(=O)N(C)[C@@H](C(CC)CC)C(=O)N(C)[C@H](C(=O)N(C)C)CC(=O)N(C)[C@H]3CCC/C=C/c4ccc(cc4)C[C@@H](C(=O)N(C)CC(=O)N[C@@H](CCc4cc(F)c(C(F)(F)F)c(F)c4)C(=O)N2C1)N1CC/C=C\C[C@@H](C1=O)N(C)C(=O)CN(C)C(=O)[C@H]([C@@H](C)CC)NC3=O [PP2575] | A (a compound having 10 or more and less than 20 is denoted as A) | A (a compound having 10 or more and less than 20 is denoted as A) |
| CCO[C@@H]1C[C@H]2C(=O)NC3(CC(C)(C)C3)C(=O)N(C)[C@@H](C(CC)CC)C(=O)N(C)[C@H](C(=O)N3CCCC3)CC(=O)N(C)[C@H]3CCC/C=C/c4ccc(cc4)C[C@@H](C(=O)N(C)CC(=O)N[C@@H](CCc4cc(F)c(C(F)(F)F)c(F)c4)C(=O)N2C1)N1CC/C=C\C[C@@H](C1=O)N(C)C(=O)CN(C)C(=O)[C@H]([C@@H](C)CC)NC3=O [PP2576] | A (a compound having 10 or more and less than 20 is denoted as A) | A (a compound having 10 or more and less than 20 is denoted as A) |
| CCO[C@@H]1C[C@H]2C(=O)NC3(CC(C)(C)C3)C(=O)N(C)[C@@H](C3CCCC3)C(=O)N(C)[C@H](C(=O)N(C)CC)CC(=O)N(C)[C@H]3CCC/C=C/c4ccc(cc4)C[C@@H](C(=O)N(C)CC(=O)N[C@@H](CCc4ccc(Cl)c(Cl)c4)C(=O)N2C1)N1CC/C=C\C[C@@H](C1=O)N(C)C(=O)CN(C)C(=O)[C@H]([C@@H](C)CC)NC3=O [PP2577] | A (a compound having 10 or more and less than 20 is denoted as A) | A (a compound having 10 or more and less than 20 is denoted as A) |
| CCO[C@@H]1C[C@H]2C(=O)NC3(CC(C)(C)C3)C(=O)N(C)[C@@H](C3CCCC3)C(=O)N(C)[C@H](C(=O)N3CCCCC3)CC(=O)N(C)[C@H]3CCC/C=C/c4ccc(cc4)C[C@@H](C(=O)N(C)CC(=O)N[C@@H](CCc4ccc(Cl)c(Cl)c4)C(=O)N2C1)N1CC/C=C\C[C@@H](C1=O)N(C)C(=O)CN(C)C(=O)[C@H]([C@@H](C)CC)NC3=O [PP2578] | A (a compound having 10 or more and less than 20 is denoted as A) | AA (a compound having 20 or more is denoted as AA) |
| CCO[C@@H]1C[C@H]2C(=O)NC3(CC(C)(C)C3)C(=O)N(C)[C@@H](C(CC)CC)C(=O)N(C)[C@H](C(=O)N(C)C)CC(=O)N(C)[C@H]3CCC/C=C/c4ccc(cc4)C[C@@H](C(=O)N(C)CC(=O)N[C@@H](CCc4ccc(Cl)c(Cl)c4)C(=O)N2C1)N1CC/C=C\C[C@@H](C1=O)N(C)C(=O)CN(C)C(=O)[C@H]([C@@H](C)CC)NC3=O [PP2580] | A (a compound having 10 or more and less than 20 is denoted as A) | AA (a compound having 20 or more is denoted as AA) |
